Several values for one entry are separate records, joined by “and”; a condition that tells them apart may be missing. Identical values can stand only once. Inconclusive results and toxic doses are left out.
Test system: P388 leukemia ip, CD2F1 mice, survival T/C
Test: NCI In Vivo Anticancer Drug Screen. Data for tumor model P388 Leukemia (intraperitoneal) in CD2F1 (CDF1) mice
Conditions: endpoint: median survival time, higher = longer survival
Method in brief: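 Mice carrying the transplanted tumor received test compound or vehicle. Survival was recorded in each group, and the value is the treated-group measurement divided by that of the vehicle-treated control group.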

[1] = dose: 50.0 mg/kg/injection, schedule: Q01DX005 (ip), vehicle: Klucel (hydroxypropylcellulose) (HPC)
[2] = dose: 50.0 mg/kg/injection, schedule: Q01DX009 (ip), vehicle: saline with Tween-80
[3] = dose: 100.0 mg/kg/injection, schedule: Q01DX009 (ip), vehicle: saline with Tween-80
[4] = dose: 200.0 mg/kg/injection, schedule: Q01DX009 (ip), vehicle: saline with Tween-80

Question: How did the T/C [1] turn out when Clc1ccc(N2C(c3ccccc3)=N[C@@H](N3CCCCC3)[C@@H]2N2CCCCC2)cc1 was run?
Answer: The T/C was 102 % of control.

Question: What about the T/C (dose: 100.0 mg/kg/injection, schedule: Q01DX005 (ip), vehicle: Klucel (hydroxypropylcellulose) (HPC)) of the same compound?
Answer: The T/C was 98 % of control.

Question: And the T/C (dose: 200.0 mg/kg/injection, schedule: Q01DX005 (ip), vehicle: Klucel (hydroxypropylcellulose) (HPC))?
Answer: The T/C was 93 % of control.

Question: Which results are given for COc1ccc2c(c1)C=C([N+](=O)[O-])C(N1CCOCC1)O2 (stereo not given)?
Answer: T/C (dose: 12.5 mg/kg/injection, schedule: Q01DX005 (ip), vehicle: Klucel (hydroxypropylcellulose) (HPC)): 106 % of control; T/C (dose: 25.0 mg/kg/injection, schedule: Q01DX005 (ip), vehicle: Klucel (hydroxypropylcellulose) (HPC)): 108 % of control; T/C [1]: 101 % of control and 109 % of control

Question: With CC(O)C(=O)N1Cc2cc3ccccc3nc2C1 (stereo not given) as the compound, how does the T/C (dose: 4.0 mg/kg/injection, schedule: Q01DX009 (ip), vehicle: saline with Tween-80) read?
Answer: Its T/C is 94 % of control.

Question: What about the T/C (dose: 8.0 mg/kg/injection, schedule: Q01DX009 (ip), vehicle: saline with Tween-80) of the same compound?
Answer: The T/C was 89 % of control.

Question: And the T/C (dose: 16.0 mg/kg/injection, schedule: Q01DX009 (ip), vehicle: saline with Tween-80)?
Answer: Its T/C is 92 % of control.

Question: What about the T/C (dose: 32.0 mg/kg/injection, schedule: Q01DX009 (ip), vehicle: saline with Tween-80) of the same compound?
Answer: The T/C was 90 % of control.

Question: What about the T/C (dose: 64.0 mg/kg/injection, schedule: Q01DX009 (ip), vehicle: saline with Tween-80) of the same compound?
Answer: The T/C was 91 % of control.

Question: Which T/C (dose: 50.0 mg/kg/injection, schedule: Q01DX009 (ip), vehicle: Klucel (hydroxypropylcellulose) (HPC)) does the source give for Cn1c(N2CCN(CCO)CC2)nc2c1c(=O)n(CC(O)CN1CCN(CCO)CC1)c(=O)n2C (stereo not given) here?
Answer: The T/C was 89 % of control.

Question: What about the T/C (dose: 100.0 mg/kg/injection, schedule: Q01DX009 (ip), vehicle: Klucel (hydroxypropylcellulose) (HPC)) of the same compound?
Answer: The T/C was 97 % of control.

Question: What about the T/C (dose: 200.0 mg/kg/injection, schedule: Q01DX009 (ip), vehicle: Klucel (hydroxypropylcellulose) (HPC)) of the same compound?
Answer: Its T/C is 107 % of control.

Question: Which T/C (dose: 25.0 mg/kg/injection, schedule: Q01DX009 (ip), vehicle: other) does the source give for COc1cc(Br)c(C(=O)Nc2ccc(O)cc2)cc1OC here?
Answer: The T/C was 103 % of control and 107 % of control.

Question: What about the T/C (dose: 50.0 mg/kg/injection, schedule: Q01DX009 (ip), vehicle: other) of the same compound?
Answer: The T/C was 110 % of control.

Question: And the T/C (dose: 100.0 mg/kg/injection, schedule: Q01DX009 (ip), vehicle: other)?
Answer: Its T/C is 106 % of control and 118 % of control.

Question: What about the T/C (dose: 200.0 mg/kg/injection, schedule: Q01DX009 (ip), vehicle: other) of the same compound?
Answer: The T/C was 106 % of control and 117 % of control.

Question: And the T/C (dose: 400.0 mg/kg/injection, schedule: Q01DX009 (ip), vehicle: other)?
Answer: Its T/C is 106 % of control.

Question: With COc1cc2c(cc1OC)C(Cc1ccc(OC)c(Oc3ccc(CC4c5cc(OC)c(OC)c(O)c5CCN4C)cc3)c1)N(C)CC2 (stereo not given) as the compound, how does the T/C (dose: 20.0 mg/kg/injection, schedule: Q01DX009 (ip), vehicle: Klucel (hydroxypropylcellulose) (HPC)) read?
Answer: The T/C was 106 % of control.

Question: What about the T/C (dose: 40.0 mg/kg/injection, schedule: Q01DX009 (ip), vehicle: Klucel (hydroxypropylcellulose) (HPC)) of the same compound?
Answer: The T/C was 107 % of control.

Question: What about the T/C (dose: 80.0 mg/kg/injection, schedule: Q01DX009 (ip), vehicle: Klucel (hydroxypropylcellulose) (HPC)) of the same compound?
Answer: The T/C was 111 % of control.

Question: Which results are given for O=C1OC(=O)c2ncccc21?
Answer: T/C (dose: 6.25 mg/kg/injection, schedule: Q01DX009 (ip), vehicle: saline with Tween-80): 101 % of control; T/C (dose: 12.5 mg/kg/injection, schedule: Q01DX009 (ip), vehicle: saline with Tween-80): 96 % of control; T/C (dose: 25.0 mg/kg/injection, schedule: Q01DX009 (ip), vehicle: saline with Tween-80): 101 % of control; T/C [2]: 111 % of control

Question: O=C(/C=C/c1ccc(Cl)cc1)/C=C/c1ccc(Cl)cc1 was tested. Which T/C [2] did it give?
Answer: The T/C was 91 % of control.

Question: And the T/C [3]?
Answer: Its T/C is 86 % of control.

Question: What about the T/C [4] of the same compound?
Answer: The T/C was 93 % of control.

Question: With CCCCCCCC#CC(=O)OC as the compound, how does the T/C [2] read?
Answer: Its T/C is 95 % of control.

Question: What about the T/C [3] of the same compound?
Answer: The T/C was 101 % of control.

Question: What about the T/C [4] of the same compound?
Answer: The T/C was 101 % of control.

Question: How did the T/C (dose: 60.0 mg/kg/injection, schedule: Q01DX005 (ip), vehicle: saline with Tween-80) turn out when Nc1ccc2c(SCCSc3c4ccccc4nc4cc(N)ccc34)c3ccccc3nc2c1 was run?
Answer: The T/C was 97 % of control.

Question: And the T/C (dose: 120.0 mg/kg/injection, schedule: Q01DX005 (ip), vehicle: saline with Tween-80)?
Answer: The T/C was 100 % of control.

Question: How did the T/C (dose: 2.5 mg/kg/injection, schedule: Q01DX009 (ip), vehicle: Klucel (hydroxypropylcellulose) (HPC)) turn out when COc1cc2c(c(OC)c1O)-c1ccc(OC)c(=O)cc1[C@@H](NC(=O)C(F)(F)F)CC2 was run?
Answer: The T/C was 157 % of control.

Question: What about the T/C (dose: 5.0 mg/kg/injection, schedule: Q01DX005 (ip), vehicle: Klucel (hydroxypropylcellulose) (HPC)) of the same compound?
Answer: Its T/C is 155 % of control.

Question: What about the T/C (dose: 5.0 mg/kg/injection, schedule: Q01DX009 (ip), vehicle: Klucel (hydroxypropylcellulose) (HPC)) of the same compound?
Answer: The T/C was 159 % of control and 163 % of control.

Question: And the T/C (dose: 10.0 mg/kg/injection, schedule: Q01DX005 (ip), vehicle: Klucel (hydroxypropylcellulose) (HPC))?
Answer: The T/C was 155 % of control.

Question: What about the T/C (dose: 10.0 mg/kg/injection, schedule: Q01DX009 (ip), vehicle: Klucel (hydroxypropylcellulose) (HPC)) of the same compound?
Answer: Its T/C is 182 % of control.

Question: For O=c1[nH]c(-c2ccc(O)cc2)cc2ccccc12, which T/C (dose: 100.0 mg/kg/injection, schedule: Q04DX002 (ip), vehicle: saline with Tween-80) is on record?
Answer: The T/C was 99 % of control.

Question: And the T/C (dose: 200.0 mg/kg/injection, schedule: Q04DX002 (ip), vehicle: saline with Tween-80)?
Answer: Its T/C is 100 % of control.

Question: And the T/C (dose: 400.0 mg/kg/injection, schedule: Q04DX002 (ip), vehicle: saline with Tween-80)?
Answer: The T/C was 100 % of control.

Question: Which results are given for O=C1C2=C(CCC2)C2CCCC12 (stereo not given)?
Answer: T/C [2]: 102 % of control; T/C [3]: 109 % of control; T/C [4]: 90 % of control
